Experimental data reported in patent US20100093777A1 (Takeda Pharmaceutical Company Limited, priority 2007, published 2010).

Columns and labels:
Human ACC1 = target: T1, Human ACC1 (Homo sapiens, UniProt Q13085); experiment: Measurement of ACC1 inhibitory activity (recombinant enzyme, malachite green absorbance); format: biochemical; conditions: recombinant human ACC1 8 μg/ml; 30° C.; 200 μM ATP, 200 μM Acetyl-CoA; absorbance 620 nm
T1 construct: His tag (from the pFAST-BacHTc vector); own knowledge: N-terminal 6xHis with TEV site; made in house; host or cells: SF-9 insect cells, recombinant baculovirus BAC-ACC1
Protocol: The ACC1 inhibitory action of the compound of the present invention was evaluated by the following method.
Human ACC1 gene was cloned by PCR using a human liver cDNA library (Clontech) as a template and Primer 1 and Primer 2 shown below. Primer 1 and Primer 2 were prepared by adding SalI, NotI restriction enzyme recognition sequence based on the information of the base sequence (Genbank Accession U19822) of human ACC1 gene.
(§1) PCR was performed using a Pyrobest DNA polymerase (TAKARA BIO INC.) The obtained PCR product was cloned to pT7 Blue vector (Novagen) and, after confirmation of the base sequence, digested with restriction enzymes SalI and NotI. The obtained DNA fragment was inserted to pFAST-BacHTc (Invitrogen) digested with restriction enzymes SalI and NotI to give expression plasmid ACC1/pFAST-BacHTc.
Using the expression plasmid and BAC-TO-BAC Baculovirus Expression System (Invitrogen), virus stock BAC-ACC1 of recombinant Baculovirus was prepared.
SF-9 cells (Invitrogen) were inoculated to a medium (1 L) for insect cells (Sf-900IISFM medium (Invitrogen) containing 10% fetal bovine serum (Trace), 50 mg/L Gentamicin (Invitrogen) and 0.1% Pluronic F-68 (Invitrogen)) at 1×10^6 cells/mL, and cultured with shaking at 27° C., 100 rpm in a 2 L Erlenmeyer flask.
After 24 hr of the culture, recombinant Baculovirus BAC-ACC1 (10 mL) was added, and the cells were further cultured for 3 days. The culture medium was centrifuged at 1000×g for 5 min to give virus-infected cells. The cells were washed with phosphate buffered saline (Invitrogen), and centrifuged under the same conditions, and the obtained cells were cryopreserved at −80° C.
The cryopreserved cells were thawed in ice and suspended in 100 mL of 25 mM HEPES buffer (pH 7.5) containing 10% Glycerol, 0.13 M NaCl, 1 mM EDTA, 25 mM Sodium β-Glycerophosphate and 1 mM Sodium Orthovanadate, and supplemented with Complete Protease Inhibitor (Nippon Boehringer Ingelheim Co., Ltd.). The obtained suspension was homogenized 3 times in a polytron homogenizer (Kinematica) at 20,000 rpm for 30 sec. The obtained cell disruption solution was clarified by centrifugation at 185700×g for 50 min, and filtered through a 0.45 μm filter. The filtrate was passed through a column packed with 12 mL of Ni-NTA Super Flow Gel (QUIAGEN) at a flow rate of about 5 mL/min. The column was washed with buffer A (50 mM HEPES (pH 7.5) containing 0.3 M NaCl), further washed with buffer A containing 20 mM Imidazole, and eluted with buffer A containing 100 mM Imidazole. The eluate was concentrated with Vivaspin 20 (Vivascience) with a molecular weight cut off of 30K. The obtained concentrate was dialyzed against Sephadex G-25 (Amersham Biosciences, 358 ml) equilibrated with 50 mM HEPES (pH 7.5) containing 10 mM MgCl2, 2 mM Dithiothreitol, 10 mM Tripotassium Citrate and 0.3 M NaCl. The inner dialysate was concentrated with Vivaspin 20 (Vivascience) with a molecular weight cut off of 30K, and the concentrate was filtered through a 0.22 μm filter to give ACC1. The obtained ACC1 was cryopreserved at −80° C.
ACC1 (0.93 mg/ml) obtained in the above-mentioned (2) was diluted with an enzyme reaction buffer (50 mM HEPES (pH 7.5), 10 mM MgCl2, 10 mM Tripotassium Citrate, 2 mM Dithiothreitol, 0.75 mg/ml Fatty acid free BSA) to concentration of 8 μg/ml, and the mixture was added to each well of 384 well assay plate (Nunc 265196) by 10 μl.
Thereafter, ACC1 inhibitory rate (%) was measured in the same manner as in the below-mentioned Experimental Example 2-(3), and IC50 value was calculated.
ACC2 (Nd) (1.1 mg/ml) obtained in the above-mentioned (2) was diluted with an enzyme reaction buffer (50 mM HEPES (pH 7.5), 10 mM MgCl2, 10 mM Tripotassium Citrate, 2 mM Dithiothreitol, 0.75 mg/ml Fatty acid free BSA) to a concentration of 6.4 μg/ml, and the mixture was added to each well of a 384 well assay plate (Nunc 265196) by 10 μl. […]

[1] = target: T2, Human ACC2 (Nd, N terminal deleted) (Homo sapiens, UniProt O00763); experiment: Measurement of ACC2 inhibitory activity (recombinant ACC2 (Nd), malachite green absorbance); format: biochemical; conditions: recombinant human ACC2 (Nd) 6.4 μg/ml; 30° C.; 200 μM ATP, 200 μM Acetyl-CoA; absorbance 620 nm
T2 construct: His tag (from the pFAST-BacHTa vector); own knowledge: N-terminal 6xHis with TEV site; made in house; host or cells: SF-9 insect cells, recombinant baculovirus BAC-ACC2 (Nd)
T2 sequence (O00763 117-2458 limits assumed, stated change not applied): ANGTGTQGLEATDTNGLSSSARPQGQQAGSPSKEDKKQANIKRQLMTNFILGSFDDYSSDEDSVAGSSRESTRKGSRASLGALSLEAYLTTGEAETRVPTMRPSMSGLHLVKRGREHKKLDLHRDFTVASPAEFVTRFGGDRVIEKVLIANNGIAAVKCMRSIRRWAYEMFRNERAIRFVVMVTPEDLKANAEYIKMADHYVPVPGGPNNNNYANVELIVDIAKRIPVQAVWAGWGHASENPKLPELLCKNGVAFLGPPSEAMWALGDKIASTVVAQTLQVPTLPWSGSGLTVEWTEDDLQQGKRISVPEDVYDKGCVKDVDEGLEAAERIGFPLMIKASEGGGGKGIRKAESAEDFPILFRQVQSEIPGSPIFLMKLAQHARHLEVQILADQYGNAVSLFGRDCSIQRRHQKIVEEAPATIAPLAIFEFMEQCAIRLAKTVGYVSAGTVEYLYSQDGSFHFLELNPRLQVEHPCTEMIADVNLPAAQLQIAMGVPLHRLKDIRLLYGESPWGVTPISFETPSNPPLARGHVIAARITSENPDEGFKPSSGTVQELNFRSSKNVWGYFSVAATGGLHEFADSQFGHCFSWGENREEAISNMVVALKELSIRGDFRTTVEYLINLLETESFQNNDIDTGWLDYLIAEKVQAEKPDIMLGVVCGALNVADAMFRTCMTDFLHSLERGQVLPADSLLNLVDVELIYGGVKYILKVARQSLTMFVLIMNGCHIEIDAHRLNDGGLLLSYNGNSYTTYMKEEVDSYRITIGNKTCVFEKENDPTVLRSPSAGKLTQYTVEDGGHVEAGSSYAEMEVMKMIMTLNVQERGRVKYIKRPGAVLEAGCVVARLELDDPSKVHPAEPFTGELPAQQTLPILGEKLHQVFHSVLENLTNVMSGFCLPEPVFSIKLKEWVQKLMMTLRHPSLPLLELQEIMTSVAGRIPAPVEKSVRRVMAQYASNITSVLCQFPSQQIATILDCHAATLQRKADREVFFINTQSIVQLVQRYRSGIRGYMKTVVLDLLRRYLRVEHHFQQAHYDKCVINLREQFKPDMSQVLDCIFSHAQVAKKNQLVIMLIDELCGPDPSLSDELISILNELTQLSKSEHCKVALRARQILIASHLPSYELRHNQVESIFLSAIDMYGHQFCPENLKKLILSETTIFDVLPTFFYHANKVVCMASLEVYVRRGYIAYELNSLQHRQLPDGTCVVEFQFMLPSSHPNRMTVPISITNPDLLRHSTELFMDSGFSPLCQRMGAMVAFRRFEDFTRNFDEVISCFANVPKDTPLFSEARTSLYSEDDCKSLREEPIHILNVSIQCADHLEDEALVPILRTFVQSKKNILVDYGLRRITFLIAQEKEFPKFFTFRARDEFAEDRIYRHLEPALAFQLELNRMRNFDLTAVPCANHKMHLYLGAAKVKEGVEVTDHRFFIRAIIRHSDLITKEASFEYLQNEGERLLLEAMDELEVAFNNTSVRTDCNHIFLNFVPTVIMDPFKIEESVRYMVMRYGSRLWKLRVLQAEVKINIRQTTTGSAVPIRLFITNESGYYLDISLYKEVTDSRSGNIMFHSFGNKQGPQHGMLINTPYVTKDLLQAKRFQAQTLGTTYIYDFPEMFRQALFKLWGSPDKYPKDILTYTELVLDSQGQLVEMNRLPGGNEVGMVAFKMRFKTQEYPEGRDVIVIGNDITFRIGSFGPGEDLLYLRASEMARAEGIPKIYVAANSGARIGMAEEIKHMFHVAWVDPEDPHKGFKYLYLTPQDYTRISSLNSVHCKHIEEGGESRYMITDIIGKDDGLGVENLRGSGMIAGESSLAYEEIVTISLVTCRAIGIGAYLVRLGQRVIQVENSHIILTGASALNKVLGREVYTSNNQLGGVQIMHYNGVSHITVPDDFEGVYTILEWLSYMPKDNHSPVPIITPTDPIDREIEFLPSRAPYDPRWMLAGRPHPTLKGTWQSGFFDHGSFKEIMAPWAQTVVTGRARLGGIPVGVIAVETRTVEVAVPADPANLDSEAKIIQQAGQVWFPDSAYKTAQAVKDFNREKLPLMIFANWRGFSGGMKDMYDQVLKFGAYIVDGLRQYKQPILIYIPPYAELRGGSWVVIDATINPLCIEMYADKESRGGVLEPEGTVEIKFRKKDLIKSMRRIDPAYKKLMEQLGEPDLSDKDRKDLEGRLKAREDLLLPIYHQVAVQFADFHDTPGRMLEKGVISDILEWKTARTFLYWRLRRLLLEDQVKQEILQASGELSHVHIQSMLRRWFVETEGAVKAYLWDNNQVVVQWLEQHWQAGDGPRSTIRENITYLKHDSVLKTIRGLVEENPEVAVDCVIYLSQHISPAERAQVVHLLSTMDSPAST
Protocol: The ACC2 inhibitory action of the compound of the present invention was evaluated by the following method.
Human ACC2 gene was cloned by PCR using a human skeletal muscle cDNA library (Clontech) as a template and Primer 1 and Primer 2 shown below. Primer 1 and Primer 2 were prepared by adding SalI, XbaI restriction enzyme recognition sequences based on the information of the base sequence (Genbank Accession U89344) of human ACC2 gene.
as §1, with “using” for “using a”, “INC.).” for “INC.)”, “XbaI.” for “NotI.”, “into pFAST-BacHTa” for “to pFAST-BacHTc”, “XbaI” for “NotI”, “ACC2/pFAST-BacHTa.” for “ACC1/pFAST-BacHTc.”
PCR was performed using the expression plasmid as a template and Primer 3 and Primer 4 shown below to prepare a plasmid to be used for expression of ACC2 free of mitochondrial targeting sequence.
as §1, with “Pyrobest-DNA” for “a Pyrobest DNA”, “INC.).” for “INC.)”, “AflII.” for “NotI.”, “into pFAST-BacHTa” for “to pFAST-BacHTc”, “AflII” for “NotI”, “ACC2mito7/pFAST-BacHTa.” for “ACC1/pFAST-BacHTc.”
Using the expression plasmid and BAC-TO-BAC Baculovirus Expression System (Invitrogen), virus stock BAC-ACC2 (N terminal deleted (hereinafter Nd)) of recombinant Baculovirus was prepared.
SF-9 cells (Invitrogen) were inoculated to a medium (2 L) for insect cells (Sf-900IISFM medium (Invitrogen) containing 10% fetal bovine serum (Trace), 50 mg/L Gentamicin (Invitrogen), 0.1% Pluronic F-68 (Invitrogen)) at 0.5×10^6 cells/mL, and cultured with shaking in Wave Bioreactor (Wave) at 27° C., 20 rpm, rocking angle […], oxygen concentration 30%.
On day 4 of the culture, 3 L of the medium for insect cells was added, the rocking angle was set to 8°, and the cells were cultured. On day 5 of the culture, 100 mL of recombinant Baculovirus BAC-ACC2 (Nd) was added, 5 L of the medium for insect cells was further added, the rocking angle was set to 11°, and the cells were cultured for 3 days. The culture medium was centrifuged at 1000×g for 10 min to give virus-infected cells. The cells were washed with phosphate buffered saline (Invitrogen) and centrifuged under the same conditions. The obtained cells were cryopreserved at −80° C.
The cryopreserved cells were thawed in ice and suspended in 900 mL of 25 mM HEPES buffer (pH 7.5) containing 10% Glycerol, 0.13 M NaCl, 1 mM EDTA, 25 mM Sodium βGlycerophosphate and 1 mM Sodium Orthovanadate, and supplemented with Complete Protease Inhibitor (Nippon Boehringer Ingelheim Co., Ltd.). The obtained suspension was homogenized 3 times in a polytron homogenizer (Kinematica) at 20,000 rpm for 30 sec. The obtained cell disruption solution was clarified by centrifugation at 31000×g for 60 min, and filtered through a 0.45 μm filter. The filtrate was passed through a column packed with 60 mL of Ni-NTA Super Flow Gel (QUIAGEN) at a flow rate of about 5 mL/min. The column was washed with buffer A (50 mM HEPES (pH 7.5) containing 0.3 M NaCl), further washed with buffer A containing 20 mM Imidazole, and eluted with buffer A containing 100 mM Imidazole. The eluate was concentrated with Vivaspin 20 (Vivascience) with a molecular weight cut off of 30K. The obtained concentrate was dialyzed against 50 mM HEPES (pH 7.5) containing 10 mM MgCl2, 2[…] Dithiothreitol, 10 mM Tripotassium Citrate and 0.3 M NaCl. The inner dialysate was filtered through a 0.22 μm filter to give ACC2 (Nd). The obtained ACC2 (Nd) was cryopreserved at −80° C.
A test compound was dissolved in dimethyl sulfoxide (DMSO) and the mixture was diluted with an enzyme reaction buffer and the resulting solution (5 μl) was added to each well.

melting point [°C] | IC50 (Human ACC1) [nM] | IC50 [1] [nM] | SMILES
195 to 198 | – | – | CNC(=O)Nc1sc2nc(C)ccc2c1C(=O)N1CCC(N2CCCC3(CCN(C(C)C)C3=O)C2)CC1 (centres unmarked) [Example 64, N-(3-{[4-(2-isopropyl-1-oxo-2,7-diazaspiro[4.5]dec-7-yl)piperidin-1-yl]carbonyl}-6-methylthieno[2,3-b]pyridin-2-yl)-N′-methylurea]
– | 10 to 100 | 1 to 10 | CNC(=O)Nc1sc2nc(C)ccc2c1C(=O)N1CCC(N2CCCC3(C2)CC(C)(C)OC3=O)CC1 (centres unmarked) [Example 78, N-(3-{[4-(3,3-dimethyl-1-oxo-2-oxa-7-azaspiro[4.5]dec-7-yl)piperidin-1-yl]carbonyl}-6-methylthieno[2,3-b]pyridin-2-yl)-N′-methylurea]
– | 10 to 100 | 1 to 10 | CCNC(=O)Nc1sc2nc(C)ccc2c1C(=O)N1CCC(N2CCCC3(C2)CC(C)(C)OC3=O)CC1 (centres unmarked) [Example 79, N-(3-{[4-(3,3-dimethyl-1-oxo-2-oxa-7-azaspiro[4.5]dec-7-yl)piperidin-1-yl]carbonyl}-6-methylthieno[2,3-b]pyridin-2-yl)-N′-ethylurea]
